Measured values from PMC13372822 (The EMBO Journal, 2026).
Numbering of substitutions follows the chain as printed.

Assays:
[1] = target: T1, SUCR1 mutants (variant named in the endpoint) (Homo sapiens, UniProt Q9BXA5, F285A/L102F); assay: Calcium mobilization assay, SUCR1 mutants in HEK293 stably expressing Gα16; assay type: cell-based; details: SUCR1 F285A-L102F
T1 construct: The full-length human SUCR1 and mutations were fused after the HA signal peptide and Flag tag; HA signal peptide (N); Flag (N); expressed in transfected cells; host or cells: HEK293 stably expressing Gα16 (pcDNA6.0, transient electroporation)
T1 sequence (Q9BXA5 1-334 L102F/F285A): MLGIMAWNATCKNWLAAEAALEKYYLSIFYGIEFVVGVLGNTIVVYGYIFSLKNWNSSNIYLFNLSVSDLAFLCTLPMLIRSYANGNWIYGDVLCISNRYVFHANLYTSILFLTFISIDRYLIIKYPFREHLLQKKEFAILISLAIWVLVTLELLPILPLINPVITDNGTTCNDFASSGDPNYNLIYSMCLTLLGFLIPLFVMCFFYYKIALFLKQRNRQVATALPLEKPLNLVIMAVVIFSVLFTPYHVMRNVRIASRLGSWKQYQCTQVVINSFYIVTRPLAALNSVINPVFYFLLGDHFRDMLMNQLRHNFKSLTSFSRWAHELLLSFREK
Experimental: (§1) The full-length human SUCR1 and mutations were fused after the HA signal peptide and Flag tag. The constructs were cloned into pcDNA6.0 vector for HEK293 system.
(§2) HEK293 cells were obtained from ATCC (Manassas, VA, USA) and cultured in DMEM supplemented with 10% (v/v) FBS, 100 mg/L penicillin, and 100 mg/L streptomycin in 5% CO2 at 37 °C. For transient transfection, ~2.5 × 10^6 cells were mixed with 2 µg plasmids in 200 µL transfection buffer, and electroporation was carried out with a Scientz-2C electroporation apparatus (Scientz Biotech, Ningbo, China). The experiments were carried out 24 h after transfection. HEK293 cell lines stably expressing Gα16 were constructed by our laboratory.
(§3) For OXGR1, plasmids were transfected into HEK293 (other receptors were transfected into HEK293 stably expressing Gα16) and seeded at a density of 4 × 10^4 per well into 96-well culture plates and incubated for 24 h at 37 °C in 5% CO2. The next day, Cells were incubated with 2 μM/L Fluo-4 AM in HBSS supplemented with 5.6 mM/L D-glucose and 250 μM/L sulfinpyrazone at 37 °C for 45 min. […] Three independent measurements were repeated, i.e., three different transfections, with three technical replicates performed for each experiment. EC50 and Emax values for each curve were calculated by Prism 8.0 software (GraphPad Software).

[2] = target: T2, SUCR1 mutants (variant named in the endpoint) (Homo sapiens, UniProt Q9BXA5, Y248F); assay: as above; assay type: cell-based; details: SUCR1 Y248F
T2 construct: The full-length human SUCR1 and mutations were fused after the HA signal peptide and Flag tag; HA signal peptide (N); Flag (N); expressed in transfected cells; host or cells: HEK293 stably expressing Gα16 (pcDNA6.0, transient electroporation)
T2 sequence (Q9BXA5 1-334 Y248F): T1 sequence (Q9BXA5 1-334 L102F/F285A) with F102L, Y248F, A285F
Experimental: as §1, §2, §3

[3] = test system: OXGR1 mutants (variant named in the endpoint); assay: Calcium mobilization assay, OXGR1 mutants in HEK293; details: for Emax: each ligand normalized to WT (100%);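 as to all read-outs here: human OXGR1 variants transiently expressed in HEK293 cells, with intracellular calcium read out by Fluo-4 AM fluorescence, measured 24 h after transfection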
Experimental: as §1, §2, §3

## O=C(O)CCC(=O)O [SUC, succinate]
[1]
  EC50: 460 ± 80 µM
[2]
  EC50: 810 ± 90 µM
[3]; OXGR1 D185A
  EC50: > 1000 µM
  Emax: -4.4± 9 WT%
[3]; OXGR1 E97A
  EC50: 1580 ± 260 µM
  Emax: 74± 6 WT%
[3]; OXGR1 F113A
  EC50: > 1000 µM
  Emax: -0.39± 2 WT%
[3]; OXGR1 F113W
  EC50: 760 ± 210 µM
  Emax: 82± 5 WT%
[3]; OXGR1 F113W versus WT
  increase in potency by F113W mutation: no significant change
[3]; OXGR1 F257A
  EC50: > 10000 µM
  Emax: 29± 1 WT%
[3]; OXGR1 F257Y
  EC50: 81 ± 4 µM
  Emax: 76± 2 WT%
[3]; OXGR1 H114A
  EC50: 3600 ± 600 µM
  Emax: 84± 4 WT%
[3]; OXGR1 H114L
  EC50: > 1000 µM
  Emax: 1.9± 3 WT%
[3]; OXGR1 H281A
  EC50: 4500 ± 1300 µM
  Emax: 87±10 WT%
[3]; OXGR1 I172A
  EC50: > 1000 µM
  Emax: 0.013± 2 WT%
[3]; OXGR1 L36A
  EC50: > 1000 µM
  Emax: 6.1± 0.2 WT%
[3]; OXGR1 L89A
  EC50: > 1000 µM
  Emax: 2.8± 0.9 WT%
[3]; OXGR1 L186A
  EC50: > 1000 µM
  Emax: -0.43± 1 WT%
[3]; OXGR1 L186F
  EC50: 770 ± 60 µM
  Emax: 75± 5 WT%
[3]; OXGR1 L299P
  EC50: > 1000 µM
  Emax: 10.5±3 WT%
[3]; OXGR1 L299P, in words
  activation of OXGR1 L299P: abolished
[3]; OXGR1 M168I
  EC50: 1100 ± 60 µM
  Emax: 88± 2 WT%
[3]; OXGR1 N28A
  EC50: 300 ± 50 µM
  Emax: 94± 0.8 WT%
[3]; OXGR1 R110A
  EC50: > 1000 µM
  Emax: 7.0± 1 WT%
[3]; OXGR1 R110E
  EC50: > 1000 µM
  Emax: 8.9± 5 WT%
[3]; OXGR1 R110Q
  EC50: > 1000 µM
  Emax: 1.7± 2 WT%
[3]; OXGR1 R177A
  EC50: 370 ± 70 µM
  Emax: 89± 6 WT%
[3]; OXGR1 R264A
  EC50: > 10000 µM
  Emax: 57± 5 WT%
[3]; OXGR1 R268A
  EC50: > 1000 µM
  Emax: 6.3± 4 WT%
[3]; OXGR1 R288A
  EC50: > 1000 µM
[3]; OXGR1 R288E
  EC50: > 1000 µM
  Emax: -16±0.6 WT%
[3]; OXGR1 R288Q
  EC50: > 1000 µM
[3]; OXGR1 Y40A
  EC50: > 1000 µM
  Emax: -1.5± 2 WT%
[3]; OXGR1 Y93A
  EC50: > 1000 µM
  Emax: 5.5± 3 WT%
[3]; OXGR1 Y284A
  EC50: > 1000 µM
  Emax: 4.1±2 WT%
